Columns and labels:
Dengue = Dengue viral replication assay, secondary CPE/virus yield reduction (VYR); assay type: cell-based; conditions: read-out: cellular activity against Dengue (EC90)
Protocol: Primary cytopathic effect (CPE) reduction assay. Four-concentration CPE inhibition assays are performed. Confluent or near-confluent cell culture monolayers in 96-well disposable microplates are prepared. Cells are maintained in MEM or DMEM supplemented with FBS as required for each cell line. For antiviral assays the same medium is used but with FBS reduced to 2% or less and supplemented with 50 μg/ml gentamicin. The test compound is prepared at four log 10 final concentrations, usually 0.1, 1.0, 10, and 100 μg/ml or μM. The virus control and cell control wells are on every microplate. In parallel, a known active drug is tested as a positive control drug using the same method as is applied for test compounds. The positive control is tested with each test run. The assay is set up by first removing growth media from the 96-well plates of cells. Then the test compound is applied in 0.1 ml volume to wells at 2× concentration. […] The dye content in each well is quantified using a 96-well spectrophotometer at 540 nm wavelength. […]
Secondary CPE/Virus yield reduction (VYR) assay. […] The incorporated dye content is quantified as described above. […] Compounds observed to be active above are further evaluated by VYR assay. […] Wells are scored for presence or absence of virus after distinct CPE (measured by neutral red uptake) is observed. […]

Furin = target: T1, Furin (Homo sapiens, UniProt P09958); experiment: Furin enzymatic assay, IC50 determination with Pyr-RTKR-AMC substrate; assay type: biochemical; conditions: furin 50 nM, Pyr-RTKR-AMC 25 μM, 30 min preincubation; read-out: IC50 against Furin
T1 construct: Purification of Soluble Furin; inferred from purification by Ni2+-chelating chromatography and imidazole elution; made in house; host or cells: MDCK cells (furin-overexpressing), secreted into culture medium
T1 sequence (P09958 108-715 limits assumed): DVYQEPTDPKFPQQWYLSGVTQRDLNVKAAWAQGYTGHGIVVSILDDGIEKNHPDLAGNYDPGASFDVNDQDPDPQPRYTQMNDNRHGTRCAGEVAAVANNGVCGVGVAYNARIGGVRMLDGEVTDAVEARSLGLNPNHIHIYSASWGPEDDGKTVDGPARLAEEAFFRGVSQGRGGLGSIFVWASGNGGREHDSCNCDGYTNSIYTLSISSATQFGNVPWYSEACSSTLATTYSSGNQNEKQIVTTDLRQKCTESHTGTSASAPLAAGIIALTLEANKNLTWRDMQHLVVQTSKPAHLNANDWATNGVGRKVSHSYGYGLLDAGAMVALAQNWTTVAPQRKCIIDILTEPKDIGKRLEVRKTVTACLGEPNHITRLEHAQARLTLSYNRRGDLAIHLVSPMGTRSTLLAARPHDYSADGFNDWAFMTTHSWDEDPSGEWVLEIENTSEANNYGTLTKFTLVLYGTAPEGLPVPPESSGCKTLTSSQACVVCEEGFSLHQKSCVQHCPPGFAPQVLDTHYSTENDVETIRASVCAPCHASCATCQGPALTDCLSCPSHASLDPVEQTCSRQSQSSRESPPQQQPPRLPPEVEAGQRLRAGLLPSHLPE
Protocol: Furin-overexpressing MDCK cells were grown using 15 cm plates (Falcon) in DMEM/High modified synthetic media (Thermo Scientific) supplemented with Gentamicin (10 μg/ml). Each two days the medium was collected. Cells were replenished with fresh medium. To remove cell debris, the collected samples were spun at 3000×g and the supernatant fraction was filtered through a 0.22 μm filter (Corning) and then 100-fold concentrated using a Pellicon XL Biomax 10 concentrator (Millipore). Furin was isolated from the concentrated medium samples using Ni^2+-chelating chromatography on a HiTrap Chelating HP 1.6×2.5 cm column (Amersham Biosciences) equilibrated with 20 mM Tris-HCl buffer, pH 8.0, containing 1M NaCl. To remove the impurities, the column was washed with 50 ml of the same buffer containing 25 mM imidazole. Furin was eluted using 500 mM imidazole. The purified fractions were pooled, concentrated using an Amicon Ultra 50K-cutoff membrane (Millipore), dialyzed against PBS and stored at −80° C. According to SDS-PAGE followed by Coomassie staining of the gel, Western blotting and enzyme activity assays the purity of the isolated furin samples was >95%. The typical yield of purified furin was 0.8-1 mg/liter of cell culture medium. Specific activity of purified furin was >120 units where one unit is the amount of furin that will cleave 1.0 pmol methyl-coumaryl-7-amide (AMC) from the Pyr-Arg-Thr-Lys-Arg-methyl-coumaryl-7-amide (Pyr-RTKR-AMC) substrate per min at ambient temperature, pH 7.5.
Furin activity was measured in triplicate in wells of a 96-well plate in 0.2 ml 50 mM HEPES, pH 7.5, containing 1 mM CaCl2, 0.005% Brij-35 and 20% glycerol. Pyr-RTKR-AMC (25 μM) was used as a substrate. The concentration of furin in the reactions was 50 nM. The steady-state rate of substrate hydrolysis was monitored continuously (λex=360 nm and λem=465 nm) at 37° C. using a Spectramax Gemini EM fluorescent spectrophotometer (Molecular Devices).
Furin (50 nM) was preincubated for 30 min at 20° C. with increasing concentrations of the individual compounds in 0.1 ml of 50 mM HEPES, pH 7.5, containing 1 mM CaCl2, 20% glycerol and 0.005% Brij 35. The Pyr-RTKR-AMC substrate ([…]) was added in 0.1 ml of the same buffer. Reaction velocity was monitored continuously at λex=360 nm and λem=465 nm on a Spectramax Gemini EM fluorescence spectrophotometer. All assays were performed in triplicate in wells of a 96-well plate. IC50 values were calculated by determining the concentrations of the compounds needed to inhibit 50% of the furin activity against Pyr-RTKR-AMC substrate. GraphPad Prism was used as fitting software.

IC50 (Furin) [nM]	Structure (SMILES)	EC90 (Dengue) [nM]
1200	CC(=O)N[C@@H](CCCNC(=N)N)C(=O)N[C@H](C(=O)N[C@@H](Cc1ccc(N=C(N)N)cc1)C(=O)NCc1ccc(/C(N)=N/O)cc1)C(C)C [Compound D]	
3.7	CC(=O)N[C@@H](CCCNC(=N)N)C(=O)N[C@H](C(=O)N[C@@H](Cc1ccc(N=C(N)N)cc1)C(=O)NCc1ccc(C(=N)N)c(F)c1)C(C)C [Compound B]	
9	CC(=O)N[C@@H](CCCNC(=N)N)C(=O)N[C@H](C(=O)N[C@@H](Cc1ccc(N=C(N)N)cc1)C(=O)NCc1ccc(C(=N)N)cc1F)C(C)C [Compound C]	

Further lines, the compound ahead of its results:

Structure (SMILES)	IC50 (Furin) [nM]	EC90 (Dengue) [nM]
CC(=O)N[C@@H](CCCNC(=N)N)C(=O)N[C@H](C(=O)N[C@@H](Cc1ccc(N=C(N)N)cc1)C(=O)NCc1ccc(C(=N)N)cc1)C(C)C [Compound A]	7	14000
CC(C)[C@H](NS(=O)(=O)Cc1ccc(C(=N)N)cc1)C(=O)N[C@@H](CCCNC(=N)N)C(=O)NCc1ccc(C(=N)N)cc1 [Compound E]	300	

— patent US20150051138A1, “INHIBITORS OF FURIN AND OTHER PRO-PROTEIN CONVERTASES” (Sanford-Burnham Medical Research Institute, priority 2012, published 2015)
